Legend:
[1] = tested on: dermal papilla cells (HFDPC); conditions: H2O2 at 600 µM
[2] = tested on: production of dihydrotestosterone (DHT) from testosterone in dermal papilla cells (HFDPC); assay: Dihydrotestosterone production inhibitory activity assay (DHT ELISA); type: cell-based, human; conditions: HFDPC treated with 20 nM testosterone; compound at 125 µg/ml, 150 µg/ml, 1100 µg/ml; FIG. 3
Description: (§1) HFDPC cells were inoculated in a papilla cell-specific medium (PromoCell, Heidelberg, Germany or Cell biologics Inc, IL, USA) recommended by the supplier, subcultured for 24 to 48 hours at 37° C. and 5% CO2 conditions, and used for experiments.
Quantitative analysis of dihydrotestosterone (DHT) was performed by immunochemical quantitative analysis using an ELISA kit. A DHT assay ELISA kit was purchased from Alpco (NH, USA) and used. The experiment using the kit was performed according to the instructions provided by the manufacturer, and the result was derived by converting the amount of antigen (pg/µg) per volume (ml) of cell lysate into a concentration unit.

[3] = tested on: Bax; assay: Western blot, Bax protein expression in H2O2-treated dermal papilla cells; type: cell-based, human; conditions: HFDPC, 600 µM H2O2, pretreatment with compound at each concentration; FIG. 4
Description: as §1
(§2) After treating the dermal papilla cells (HFDPC) with H2O2 and the sample, the cells were collected at each time zone and the cells were lysed in a cell lysis buffer (RIPA buffer). After the sample was centrifuged at 13,000 g for about 10 to 15 minutes, only the supernatant was taken. The protein concentration of the supernatant was measured by a BCA protein assay kit (Bio-Rad, CA, USA) and then heated at 95° C. for 10 minutes. The prepared sample was electrophoresed on SDS-polyacrylamide gel, transferred to a polyvinylidenedifluoride membrane (PVDF, Bio-rad, CA, USA), blocked with 5% BSA, and reacted with the indicated specific antibody. Then, HRP-conjugated secondary antibody (Santacruz, CA, USA) was reacted with the sample and detected by ECL system (Bio-Rad, MO, USA). As primary antibodies against Bax-1, Bcl-2, PARP-1, and β-actin, Santacruz antibodies (CA, USA) were used.

[4] = tested on: Bcl-2; assay: Western blot, Bcl-2 protein expression in H2O2-treated dermal papilla cells; type: cell-based, human; conditions: HFDPC, 600 µM H2O2, compound at each concentration; FIG. 4
Description: as §1, §2

[5] = tested on: PARP-1; assay: Western blot, PARP-1 protein expression in H2O2-treated dermal papilla cells; type: cell-based, human; conditions: HFDPC, 600 µM H2O2, compound at each concentration; FIG. 4
Description: as §1, §2

[6] = tested on: IGF-1; assay: ELISA, IGF-1 expression in H2O2-treated dermal papilla cells; type: cell-based, human; conditions: FIG. 5A
Description: as §1
(§3) An ELISA kit was purchased and used to perform immunochemical quantitative analysis related to hair growth promotion and hair loss inhibition. TGF-β and IGF-1 kits were purchased from R&D systems (CA, USA) and used. The test was conducted using each kit according to the supplier’s manual, and the result was derived by converting the amount (pg or µg) of antigen per volume (ml) of cell lysate into a concentration unit.

[7] = tested on: TGF-β1; assay: ELISA, TGF-β1 expression in H2O2-treated dermal papilla cells; type: cell-based, human; conditions: FIG. 5B
Description: as §1, §3

| Compound | apoptosis [1] [%] | inhibition of DHT production [2] | expression of Bax [3] | expression of Bcl-2 [4] | protein expression level of PARP-1 [5] | expression of IGF-1 [6] | expression of TGF-β1 [7] |
| --- | --- | --- | --- | --- | --- | --- | --- |
| OO [Hydrogen peroxide (H2O2), Hydrogen peroxide] | 50 | – | – | – | – | – | – |
| OC[C@@]1(O)COC(Oc2cc(O)c3c(c2)O[C@H](c2ccc(O)c(O)c2)[C@@H](O)C3)[C@@H]1O (stereo in doubt) [catechin 7-O-β-D-apiofuranoside] | – | effect of inhibiting DHT production was statistically significant in a concentration-dependent manner | expression of Bax was significantly reduced in a concentration-dependent manner | significantly increased the expression of Bcl-2 in a concentration-dependent manner | significantly inhibited the protein expression level of PARP-1 in a concentration-dependent manner | promote the expression of IGF conducive to hair growth in a concentration-dependent manner | inhibit the expression of TGF-β1 in a concentration-dependent manner |

Source: patent publication US20230201232A1, “COMPOSITION FOR AMELIORATION, PREVENTION OR TREATMENT OF HAIR LOSS, COMPRISING CATECHIN 7-O-beta-D-APIOFURANOSIDE AS ACTIVE INGREDIENT” (ANPOLY INC., priority 2020, published 2023)
